Experimental data as given in patent US10709690B2, “Combination therapy with nitrated lipids and inhibitors of the renin-angiotensin-aldosterone system” (THE UNIVERSITY OF UTAH RESEARCH FOUNDATION, priority 2011, dated 2020).

Assays:
Type in all cases: in vivo
[1] = test system: renal COX-2 protein; assay: Renal COX-2 protein expression in db/db mice by immunoblotting; details: 12 days; for changes of renal COX-2 protein expression relative to the vehicle group: OA-NO2 10 mg/kg/d via osmotic mini-pump, losartan via diet
Experimental: Lean mice (non-diabetic) with vehicle treatment were used as controls. Renal COX-2 protein was analyzed by using immunoblotting.
Male 3-4-month-old db/db mice were from Jackson Laboratories (Bar Harbor, Me.). All animals were housed in an air-conditioned room with a 12-hour light/dark cycle. All procedures and protocols were in accordance with guidelines set by the Laboratory Animal Care Committee at the University of Utah.
9-Nitrooleic acid and 10-nitrooleic acid are two regioisomers of nitrooleic acid (OA-NO2), which are formed by nitration of oleic acid in approximately equal proportions (Hayama et al. Chemistry Letters pp. 1109-1112, 1982). The two compounds were purchased from Cayman Chemicals (Ann Arbor, Mich.) (9-nitrooleic acid: Cat #10008042; 10-nitrooleic acid: Cat #10008043) and used as an 1:1 mixture of the isomers.
db/db mice were implanted with a 3-week osmotic mini-pump which delivered a vehicle or OA-NO2 at 10 mg/kg/d. Animals were fed with losartan, which is an AT1 blocker. 24-h urine samples were collected before and after the treatment.
Renal COX-2 expression in db/db mice treated as above was examined by immunoblotting.

[2] = test system: renal heme oxygenase-1 (HO-1) protein; assay: Renal heme oxygenase-1 protein expression in db/db mice by immunoblotting; details: 12 days; for changes of renal HO-1 protein expression relative to the vehicle group: OA-NO2 10 mg/kg/d via osmotic mini-pump, losartan via diet
Experimental: Lean mice (non-diabetic) with vehicle treatment were used as controls. Renal HO-1 protein was analyzed by using immunoblotting. […] Male 3-4-month-old db/db mice were from Jackson Laboratories (Bar Harbor, Me.). All animals were housed in an air-conditioned room with a 12-hour light/dark cycle. All procedures and protocols were in accordance with guidelines set by the Laboratory Animal Care Committee at the University of Utah. 9-Nitrooleic acid and 10-nitrooleic acid are two regioisomers of nitrooleic acid (OA-NO2), which are formed by nitration of oleic acid in approximately equal proportions ([…] et al. Chemistry Letters pp. 1109-1112, 1982). The two compounds were purchased from Cayman Chemicals (Ann Arbor, Mich.) (9-nitrooleic acid: Cat #10008042; 10-nitrooleic acid: Cat #10008043) and used as an 1:1 mixture of the isomers. db/db mice were implanted with a 3-week osmotic mini-pump which delivered a vehicle or OA-NO2 at 10 mg/kg/d. Animals were fed with losartan, which is an AT1 blocker. 24-h urine samples were collected before and after the treatment. Renal HO-1 expression was examined using immunoblotting.

[3] = test system: db/db mice; assay: Urinary TBARS in db/db mice, 12-day treatment; details: OA-NO2 10 mg/kg/d via osmotic mini-pump, losartan via diet; for effect on urinary TBARS (in words): 12 days; for changes of urinary TBARS relative to the vehicle group: after 12 days
Experimental: FIG. 2 is a bar graph comparing the amounts of urinary thiobarbituric acid reactive substances (TBARS) in db/db mice before and after 12-d infusion with vehicle, losartan, nitrooleic acid (OA-NO2), or losartan+OA-NO2. Lean mice (non-diabetic) with vehicle treatment were used as controls. Losartan was administered via diet, while vehicle and OA-NO2 were each infused via osmotic mini-pump. Lean: n=5; vehicle: n=10; losartan: n=8; OA-NO2: n=9; losartan+OA-NO2: n=10. Data are mean±SE. Male 3-4-month-old db/db mice were from Jackson Laboratories (Bar Harbor, Me.). All animals were housed in an air-conditioned room with a 12-hour light/dark cycle. All procedures and protocols were in accordance with guidelines set by the Laboratory Animal Care Committee at the University of Utah. 9-Nitrooleic acid and 10-nitrooleic acid are two regioisomers of nitrooleic acid (OA-NO2), which are formed by nitration of oleic acid in approximately equal proportions ([…] et al. Chemistry Letters pp. 1109-1112, 1982). The two compounds were purchased from Cayman Chemicals (Ann Arbor, Mich.) (9-nitrooleic acid: Cat #10008042; 10-nitrooleic acid: Cat #10008043) and used as an 1:1 mixture of the isomers. db/db mice were implanted with a 3-week osmotic mini-pump which delivered a vehicle or OA-NO2 at 10 mg/kg/d. Animals were fed with losartan, which is an AT1 blocker. 24-h urine samples were collected before and after the treatment.

[4] = test system: db/db mice; assay: Urinary albumin in db/db mice, 12-day treatment; details: 12-day study, OA-NO2 10 mg/kg/d via osmotic mini-pump, losartan via diet; for changes of urinary albumin relative to the vehicle group: + increase, − decrease in albuminuria
Experimental: FIG. 1 is a bar graph comparing the amounts of urinary albumin in db/db mice before and after a 12 day (12-d) administration of vehicle, losartan, nitrooleic acid (OA-NO2), or losartan+OA-NO2. Lean mice (non-diabetic) with vehicle treatment were used as controls. losartan was administered via diet, while OA-NO2 and vehicle were each infused via osmotic mini-pump. Lean: n=5; vehicle: n=10; losartan: n=8; OA-NO2: n=9; losartan+OA-NO2: n=10. Data are mean±SE. Male 3-4-month-old db/db mice were from Jackson Laboratories (Bar Harbor, Me.). All animals were housed in an air-conditioned room with a 12-hour light/dark cycle. All procedures and protocols were in accordance with guidelines set by the Laboratory Animal Care Committee at the University of Utah. 9-Nitrooleic acid and 10-nitrooleic acid are two regioisomers of nitrooleic acid (OA-NO2), which are formed by nitration of oleic acid in approximately equal proportions ([…] et al. Chemistry Letters pp. 1109-1112, 1982). The two compounds were purchased from Cayman Chemicals (Ann Arbor, Mich.) (9-nitrooleic acid: Cat #10008042; 10-nitrooleic acid: Cat #10008043) and used as an 1:1 mixture of the isomers. db/db mice were implanted with a 3-week osmotic mini-pump which delivered a vehicle or OA-NO2 at 10 mg/kg/d. Animals were fed with losartan, which is an AT1 blocker. 24-h urine samples were collected before and after the treatment. […] The plus symbol (+) means an increase and the minus symbol (-) indicates a decrease in albuminuria.

[5] = test system: db/db mice; assay: Renal TBARS in db/db mice, 12-day treatment; details: 12 days, OA-NO2 10 mg/kg/d via osmotic mini-pump, losartan via diet
Source text: Lean mice (non-diabetic) with vehicle treatment were used as controls. […] Lean: n=5; vehicle: n=10; losartan: n=8; OA-NO2: n=9; losartan+OA-NO2: n=10. Data are mean±SE. Male 3-4-month-old db/db mice were from Jackson Laboratories (Bar Harbor, Me.). All animals were housed in an air-conditioned room with a 12-hour light/dark cycle. All procedures and protocols were in accordance with guidelines set by the Laboratory Animal Care Committee at the University of Utah. 9-Nitrooleic acid and 10-nitrooleic acid are two regioisomers of nitrooleic acid (OA-NO2), which are formed by nitration of oleic acid in approximately equal proportions ([…] et al. Chemistry Letters pp. 1109-1112, 1982). The two compounds were purchased from Cayman Chemicals (Ann Arbor, Mich.) (9-nitrooleic acid: Cat #10008042; 10-nitrooleic acid: Cat #10008043) and used as an 1:1 mixture of the isomers. db/db mice were implanted with a 3-week osmotic mini-pump which delivered a vehicle or OA-NO2 at 10 mg/kg/d. Animals were fed with losartan, which is an AT1 blocker. 24-h urine samples were collected before and after the treatment.

Row | Molecule | effect on renal COX-2 expression (in words) [1] | changes of renal COX-2 protein expression relative to the vehicle group [1] [%] | effect on renal HO-1 expression (in words) [2] | changes of renal HO-1 protein expression relative to the vehicle group [2] | effect on urinary TBARS (in words) [3] | changes of urinary TBARS relative to the vehicle group [3] | effect on urinary albumin excretion (in words) [4] | changes of urinary albumin relative to the vehicle group [4] | effect on renal TBARS content (in words) [5]
1 | CCCCc1nc(Cl)c(CO)n1Cc1ccc(-c2ccccc2-c2nn[nH]n2)cc1 [losartan] | modest effect | −5.3 | elevated | +97.6% | without an effect | +33.4% | Neither losartan or OA-NO2 alone exhibited a statistically significant effect | +7% | trend of reduction but none of these changes reached statistical significance
2 | nitrooleic acid [OA-NO2] | modest effect | −14.8 | elevated | +48.8% | without an effect | +16.5% | Neither losartan or OA-NO2 alone exhibited a statistically significant effect | −13% | trend of reduction but none of these changes reached statistical significance
